The source of these data is patent US20250346587A1, “NITROGEN-CONTAINING FIVE-MEMBERED HETEROCYCLIC DERIVATIVES AS CHECKPOINT KINASE 1 INHIBITOR AND USES THEREOF” (SPEROGENIX THERAPEUTICS LIMITED, priority 2022, published 2025).

Converted amounts (≈) assume the structure as drawn.

Data set [1] is described as follows: Microsomal stability assay, rat liver microsome. The class given is in vitro ADME. Conditions: liver microsomes, pH 7.4, 0.2 mg/mL, 1 μM compound, 37° C., read-out: Clint RLM. Here is the method: (§1) Incubation mixture contained 0.2 mg/mL microsomes, 1 mmol NADPH, and test compound at 1 μM in 100 mmol potassium phosphate buffer at pH 7.4. The mixtures were incubated at 37° C. for 5, 15, and 30 minutes. Aliquots of the mixtures were taken at 0, 5, 15 and 30 minutes and quenched with chilled Acetonitrile:Methanol (50:50) containing internal standard. Following completion of incubation, samples were centrifuged at 4,000 rpm at 4° C. The supernatant was analyzed by LC-MS/MS and half-life, as well as intrinsic clearance (Clint), were calculated.
In general terms: Liver microsomes are vesicles of endoplasmic reticulum, rich in cytochrome P450 enzymes.

The nature of data set [2]: Kinetic solubility assay (nephelometry). The settings on record: PBS, 37 °C, pH 7.4, aqueous buffer, kinetic from dmso stock.
Protocol: Test articles were serially diluted in DMSO from concentration range of 10 mM to 0.078 mM in 96 well v-bottom dilution plate (#3363, Corning). 1 μL of test article from each well was transferred to 96 well flat bottom clear plates (#655101, Greiner) containing 99 μL of PBS at pH-7.4, which makes the test drug final concentration range from 100 μM to 0.78 μM. Samples were incubated for 1 hour at 37° C. followed by measurement of light scattering at 625 nm with a laser based micro plate Nephelometer (Nephlostar Plus, BMG Labtech). Solubility concentration (μM) was then calculated by segmental regression with Neplometer as Readout.
The target in data set [3] is CHK-1 kinase (Homo sapiens (Human), UniProt O14757). As to the kind of experiment: CHK-1 % inhibition kinase assay (TR-FRET). The class given is biochemical. Conditions: ATP 15 μM; for inhibition at 0.03 µM / inhibition at 0.3 µM: CHK1 enzyme; for inhibition at 0.03 µM: compound 30 nM; for inhibition at 0.3 µM: compound 300 nM; for IC50: TR-FRET, read-out: CHK1 IC50. Here is the method: Inhibition of CHK-1 kinase or percent inhibition at defined concentrations was determined by TR-FRET assay. Kinase reactions were performed in a 20 μL volume in low-volume 384-well plates (Cat #Corning 4511). The concentration of substrate Fluorescein-CREBtide was maintained at 0.2 μM in the assay, and the kinase reaction buffer consisted of 50 mM HEPES pH 7.5, 0.01% BRIJ-35, 10 mM MgCl2, 1 mM EGTA. Serially diluted compounds (3-fold) in DMSO (0.5% in final reaction) were incubated with cocktail of CHK-1 kinase (6 nM; Cat #PR3959B, ThermoFisher), Fluorescein-CREBtide (0.2 μM; Cat #PV3508, ThermoFisher), ATP (15 μM; Cat #A1852, Sigma), and kinase reaction buffer. After 1 hour kinase reactions at room temperature, 10 μL of Detection mix (8 nM LanthaScreen® Tb-CREB [pSer133] antibody, Cat #PV3542, ThermoFisher with 20 mM EDTA in TR-FRET Buffer, Cat #PV3574, ThermoFisher) was added, and the plate was read with a plate reader (Synergy™ NEO; Biotek) for TR-FRET.
CHK-1 kinase, sequence (O14757 whole entry): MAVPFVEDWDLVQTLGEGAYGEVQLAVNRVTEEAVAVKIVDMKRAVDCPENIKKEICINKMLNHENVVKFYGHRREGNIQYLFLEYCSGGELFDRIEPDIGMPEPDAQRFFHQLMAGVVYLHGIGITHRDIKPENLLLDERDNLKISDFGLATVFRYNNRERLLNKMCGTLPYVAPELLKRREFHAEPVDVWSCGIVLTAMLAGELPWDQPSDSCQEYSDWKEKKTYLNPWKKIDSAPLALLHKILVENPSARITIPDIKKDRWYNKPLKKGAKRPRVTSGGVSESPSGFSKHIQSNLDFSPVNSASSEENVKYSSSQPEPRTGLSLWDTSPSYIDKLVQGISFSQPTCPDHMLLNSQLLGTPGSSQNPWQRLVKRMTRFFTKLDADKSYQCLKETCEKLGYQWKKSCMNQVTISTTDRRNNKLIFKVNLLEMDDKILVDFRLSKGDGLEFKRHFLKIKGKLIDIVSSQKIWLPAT
The resulting TR-FRET emission ratio was used to calculate the percent inhibition by normalizing to the control using the following formula: […]
For orientation: Time-resolved FRET reads energy transfer from a long-lived donor to a nearby acceptor.

Data set [4] can be described thus: Microsomal stability assay, human liver microsome. The class given is in vitro ADME. Conditions: liver microsomes, pH 7.4, 0.2 mg/mL, 1 μM compound, 37° C., read-out: Clint HLM. How it is done: as §1
Data set [5] can be described thus: Microsomal stability assay, mouse liver microsome. Conditions: liver microsomes, pH 7.4, 0.2 mg/mL, 1 μM compound, 37° C., read-out: Clint MLM. It is filed as in vitro ADME. Here is the method: as §1

What is called kinetic solubility is the concentration staying in solution when a stock, usually in DMSO, is diluted into the medium. One may read the inhibition as the drop in the measured response relative to a control, in per cent. Broadly, the IC50 is the concentration that gives 50% inhibition.

With `N#Cc1cnc(Nc2cc(-c3ccccc3OC3CC(N)C3)on2)cn1` (stereo not shown) [Compound 1.20, 5-(5-(2-(3-aminocyclobutoxy)phenyl)isoxazol-3-ylamino) pyrazine-2-carbonitrile], the microsomal CLint at 1 μM is 46 µL/min/mg in data set [1], 47 µL/min/mg in data set [4] and 86 µL/min/mg in data set [5]. For the same compound, the kinetic solubility at 1 h in data set [2] was 29.4 µM (≈ 10.2 µg/mL). For the same compound, in data set [3], the inhibition at 0.03 µM came to 60.2%. Further, the inhibition at 0.3 µM in data set [3] turned out to be 91.9%.

On to `N#Cc1cnc(Nc2cc(-c3ccccc3OC3CNC3)on2)cn1` [Compound 1.4, 5-(5-(2-(azetidin-3-yloxy)phenyl)isoxazol-3-ylamino) pyrazine-2-carbonitrile], for which the microsomal CLint at 1 μM in data set [1] came to 27 µL/min/mg. Further, in data set [2], the solubility (kinetic) at 1 h turned out to be 100 µM (≈ 33.4 µg/mL). Also, in data set [3], the inhibition at 0.03 µM worked out at 7%, the inhibition at 0.3 µM came out at 54% and the half-maximal inhibitory concentration (IC50) was found to be 86.4 nM. In addition, the microsomal CLint at 1 μM in data set [4] came out at 52 µL/min/mg. The microsomal CLint at 1 μM in data set [5] was 66 µL/min/mg.

In the case of `N#Cc1cnc(Nc2cc(-c3ccccc3OCCN)on2)cn1` [Compound 1.7, 5-(5-(2-(2-aminoethoxy)phenyl)isoxazol-3-ylamino) pyrazine-2-carbonitrile], the microsomal CLint at 1 μM in data set [1] was 118 µL/min/mg; in data set [4], 75 µL/min/mg; in data set [5] it was 114 µL/min/mg. This compound also returned a kinetic solubility at 1 h in data set [2] of 39.2 µM (≈ 12.6 µg/mL). The inhibition at 0.03 µM in data set [3] is 36%. In data set [3], the inhibition at 0.3 µM came to 82%.

For the compound `CN1CCOC(COc2ccccc2-c2cc(Nc3cnc(C#N)cn3)no2)C1` (stereo not shown) [Compound 1.8, 5-(5-(2-((4-methylmorpholin-2-yl)methoxy)phenyl)isoxazol-3-ylamino) pyrazine-2-carbonitrile], the microsomal CLint at 1 μM in data set [1] stood at 104 µL/min/mg. This compound came in with a kinetic solubility at 1 h in data set [2] of 32 µM (≈ 12.6 µg/mL). Also, in data set [3], the inhibition at 0.03 µM came to 51%, the inhibition at 0.3 µM is 64% and the IC50 turned out to be 76.6 nM. Further, the microsomal CLint at 1 μM in data set [4] amounted to 202 µL/min/mg. In addition, the microsomal CLint at 1 μM in data set [5] amounted to 481 µL/min/mg.

For `N#Cc1cnc(Nc2cc(-c3cc4ccccc4cc3OCC3CCNC3)[nH]n2)cn1` (stereo not shown) [Compound 2.4, 5-(5-(3-(pyrrolidin-3-ylmethoxy)naphthalen-2-yl)-1H-pyrazol-3-ylamino) pyrazine-2-carbonitrile], in data set [1], the microsomal CLint at 1 μM was 94 µL/min/mg. In data set [2], this compound registered a kinetic solubility at 1 h of 7.77 µM (≈ 3.2 µg/mL). In data set [3], the inhibition at 0.03 µM stood at 70%, the inhibition at 0.3 µM was found to be 97% and the IC50 was 2.34 nM. In addition, the microsomal CLint at 1 μM in data set [4] is 33 µL/min/mg. For the same compound, the microsomal CLint at 1 μM in data set [5] amounted to 142 µL/min/mg.

On to `CN1CCCC(COc2ccccc2-c2cc(Nc3cnc(C#N)cn3)no2)C1` (stereo not shown) [Compound 1.16, 5-(5-(2-((1-methylpiperidin-3-yl)methoxy)phenyl)isoxazol-3-ylamino) pyrazine-2-carbonitrile], for which the microsomal CLint at 1 μM in data set [1] came to 138 µL/min/mg; in data set [4] it was 117 µL/min/mg; in data set [5] it was 141 µL/min/mg. Also, the solubility (kinetic) at 1 h in data set [2] turned out to be 38.2 µM (≈ 14.9 µg/mL). In addition, the inhibition at 0.03 µM in data set [3] turned out to be 9%. The inhibition at 0.3 µM in data set [3] was 75%.

As for `N#Cc1cnc(Nc2cc(-c3cc4ccccc4cc3OCCN)[nH]n2)cn1` [Compound 2.6, 5-((5-(3-(2-aminoethoxy)naphthalen-2-yl)-1H-pyrazol-3-yl)amino) pyrazine-2-carbonitrile], the microsomal CLint at 1 μM in data set [1] came to 58 µL/min/mg. Also, the solubility (kinetic) at 1 h in data set [2] turned out to be 18.8 µM (≈ 6.98 µg/mL). Besides, in data set [3], the inhibition at 0.03 µM was found to be 61%, the inhibition at 0.3 µM was found to be 90% and the IC50 is 15.7 nM. Besides, in data set [4], the microsomal CLint at 1 μM is 3 µL/min/mg. In data set [5], the microsomal CLint at 1 μM is 153 µL/min/mg.
